Measurements from patent publication US4487708A (priority 1981, dated 1984).
Values belong to the molecule of their own block, whether it stands above or below them.

Legend:
[1] = compatibility of neutralizing amines with hydroquinone in solution; format: physicochemical; settings: combined with hydroquinone
Source text: To provide convenient single-drum treatments, it was decided to test-formulate various dioxo aromatic compounds with neutralizing amines.

[2] = room temperature oxygen scavenging test (flask with dissolved oxygen probe); settings: for % O2 Removed: 60 seconds; for % O2 Removed / % O2 Removed At 60 Seconds: 23-25 °C; for % O2 Removed At 60 Seconds: Table 11, hydroquinone 93 ppm; for % O2 Removed, 1 Minute: hydroquinone: pH 8.6, 22.5 °C, ratio 0.94, initial O2 7.7 ppm
Source text: The test apparatus basically consisted of a 1 liter, three-necked flask fitted with a dissolved oxygen probe and a pH electrode. The intent of this apparatus was to show reaction kinetics differences rather than precise measurements (within seconds) of reaction times.
The flask was filled with deionized water which had been stripped of some dissolved oxygen by bubbling nitrogen through a diffuser stone. The pH was adjusted to the desired level with sodium hydroxide. The flask was sealed with a rubber septum, the dissolved oxygen probe and the pH electrode. A magnetic stirrer bar was left in the flask for mixing. The mixer was turned on, and dissolved oxygen and temperature readings were recorded until the dissolved oxygen reached a constant value. Next, the appropriate quantity of additive was injected through the septum using a hypodermic syringe. The initial mole ratio of treatment to dissolved oxygen was determined by weighing feed chemical and measuring the oxygen concentration. […] Dissolved oxygen and temperature readings were then taken at appropriate time intervals.
Using the same apparatus and procedure as described in Example 4 above, oxygen scavenging experiments were performed by injecting 1 ml of stock solution into a glass vessel containing 1070 ml of air-saturated, demineralized water adjusted to the appropriate pH with 7N sodium hydroxide. […] The final pH values indicated are for the test water.
The stock solution concentrations are presented in terms of weight % aqueous. The stock solutions were each 100 grams total. […] The tests were conducted at ambient temperature (23°-25° C.).
The tests were conducted at ambient temperature (23°-25° C.).

[3] = for mu-amine required to effect dissolution: saturated solution, 10.0 g hydroquinone (6.3 + 3.7 g) in 89.5 g water
Procedure: Volumes of mu-amines required to effect dissolution were recorded and converted to weights via density.

[4] = oxygen scavenging efficacy at elevated temperature and pressure (hot water flow system)
Procedure: In a first series of tests, the oxygen scavenging efficacies of various materials were evaluated under conditions of elevated temperature and pressure. The test apparatus used was essentially a stainless steel hot water flow system equipped with appropriate monitoring instrumentation. Demineralized feedwater, adjusted to the appropriate pH and initial dissolved oxygen level (controlled by nitrogen sparging), was pumped from a reservoir at ambient temperature into a once-through heater. Temperature was monitored continuously by means of thermocouples at several locations along the length of the flow tubing. A solution containing the oxygen scavenger test material was loaded into a pump driven syringe and fed continuously to the heated flow stream through a port containing a stainless steel ribbon mixing baffle. The feedwater containing dissolved oxygen and the test material then traversed the flow tubing via a by-pass comprising an additional length of coiled tubing. Contact (or reaction) time of the test material and dissolved oxygen was governed by the choice of coil length. The tendency of the temperature to drop during residence in the coiled tubing was offset by the use of thermostatted heating tapes which maintained the temperature in this tubing at 78±3° C. Upon exiting the coiled tubing, the stream flowed through a sample cooler to render the temperature of the liquid compatible with the operating range of a membrane-type dissolved oxygen probe. The cooled liquid was analyzed for dissolved oxygen via a D.O. flow cell, and pH was potentiometrically monitored in the flow tube immediately downstream of the D.O. probe. Outputs of the temperature, pH and dissolved oxygen probes during operation were monitored via strip chart recorders. The final destination of the reaction mixture was a reservoir which could be drained for analysis of reaction products, if desired.
Temperature in the system could be maintained at 78±3+ C. under 4±1 psig. Residence time of the feedwater in the flow tube from chemical feed point to D.O. flow cell outlet was 4±0.2 minutes. Approximately 3.5 minutes of this total was spent in a 40' length of 0.402 inch i.d. coiled tubing. Entry into and residence in the sample cooler accounted for 0.5 minute of the total contact time.
According to an article by J. W. Cohn and R. E. Powell, Jr., J. Amer.
The test solutions were prepared by initially mixing 10 grams of test material and 90 grams of demineralized water in glass bottles and allowing the mixture to remain in a shaker for several hours. If complete dissolution for a given material was observed after shaking, the pH of the solution was measured. When the pH of the solution was below 10.0, 7N sodium hydroxide was added dropwise until this value was reached. The quantity of added sodium hydroxide was recorded and later used in corrections for the active concentration of the solution. When the pH value of a stock solution was above pH 10.0 without requiring the addition of caustic, the solution was not further modified.
Results of these tests are reported in TABLE 1 below in terms of percent oxygen removed from the test stream. The precision of the initial and final dissolved oxygen values reported is approximately ±10%. […] The experimental uncertainties decrease with increasing values of percent dissolved oxygen removal.
The specific experimental conditions were:
Reaction Time=240±10 seconds

[5] = dissolution and storage stability of hydroquinone/methoxypropylamine solutions; format: physicochemical
Procedure: The following 25 gram solutions were prepared and sealed in glass bottles (components listed in order of addition):
Fifty (50) grams of each of the following solutions were prepared in glass bottles, sealed and placed on a shaker for two hours: […]

[6] = thermal stability of amines / dioxo aromatic compounds (no method given); format: physicochemical; settings: of the amines tested
[7] = oxygen removal from feedwater of a working boiler (Example 2)
Procedure: In order to compare the performance of hydroquinone with that of hydrazine under field-type conditions, a series of experiments were conducted on the feedwater of a working boiler. The test materials were fed to the deaerator storage tank, and the resultant change, if any, in dissolved oxygen level was measured on a sample flowing from the feedwater line through a membrane-type dissolved oxygen probe.
During the tests, a relatively wide range of experimental conditions was encountered among the test parameters, reflecting the difficulty of attempting to obtain precise data during experiments performed on a working boiler.
In order to provide some point of reference for judging oxygen scavenging efficacies while taking into account the diverse conditions experienced on a daily basis, hydrazine control runs were performed, whenever possible, under feedwater and boiler conditions similar to those encountered during testing of other test materials. The hydrazine control runs are reported below in Table 3, also in terms of % oxygen removal.

[8] = cited from earlier work
[9] = cited from earlier work; remark: listed apart in the source
[10] = Table 8, mu-amine combined with hydroquinone, 103 ppm each, final pH 9.3-10.5
[11] = stock mu-amine 1.5 / hydroquinone 10.0 wt. %, HQ:mu-amine 6.67:1
[12] = stock mu-amine 90.0 / hydroquinone 10.0 wt. %, HQ:mu-amine 1:9
[13] = stock mu-amine 99.0 / hydroquinone 1.0 wt. %, HQ:mu-amine 1:99
[14] = Table 9, mu-amine combined with hydroquinone, about 30 ppm / 10 ppm, 78±1 °C, 3-5 psig, 240±10 seconds, final pH 10.3, initial O2 500-750 ppb
[15] = Table 10, mu-amine combined with hydroquinone, 6.7 ppm each, 78±1 °C, 3-5 psig, 240±10 seconds, final pH 9.7, initial O2 1.0-1.5 ppm
[16] = Table 5, hydrazine: pH 9.2, 26.5 °C, ratio 10.5, initial O2 0.87 ppm
[17] = Table 1, 78±3 °C, 4±1 psig, contact 4±0.2 min, feedwater 58-100 ppm, pH 8.9-10.9, initial O2 1.8-2.3 ppm, hydrazine average of 9 runs, values below 20% may be artifacts
[18] = 6.3 g hydroquinone in 89.5 g demineralized water

Molecule: NC1CCCCC1 [Cyclohexylamine]
compatibility with hydroquinone in solution [1]: precipitated out of solution

Molecule: CC(O)CNCC(C)O (stereo not drawn) [Diisopropanolamine]
% O2 Removed [2, 10]: 86%

mu-amine required to effect dissolution [3]: 1.7 grams
Molecule: CN(C)CCCN [Dimethylaminopropylamine]
% O2 Removed [2, 10]: 76%
% O2 Removed At 60 Seconds [2, 11]: 94%
% O2 Removed At 60 Seconds ([2]; stock mu-amine 30.0 / hydroquinone 10.0 wt. %, HQ:mu-amine 1:3): 99%
% O2 Removed At 60 Seconds [2, 12]: 98%
% O2 Removed At 60 Seconds [2, 13]: 50%

Molecule: NCCN [Ethylenediamine]
% O2 Removed [4, 14]: 99%
% O2 Removed [2, 10]: 85%

Molecule: COCCCN [Methoxypropylamine]
% O2 Removed [4, 15]: 99%
% O2 Removed At 60 Seconds [2, 11]: 96%
% O2 Removed At 60 Seconds ([2]; stock mu-amine 2.0 / hydroquinone 10.0 wt. %, HQ:mu-amine 5:1): 96%
% O2 Removed At 60 Seconds ([2]; stock mu-amine 3.0 / hydroquinone 10.0 wt. %, HQ:mu-amine 3.33:1): 96%
% O2 Removed At 60 Seconds ([2]; stock mu-amine 15.0 / hydroquinone 15.0 wt. %, 1:1): 95%
% O2 Removed At 60 Seconds ([2]; stock mu-amine 20.0 / hydroquinone 20.0 wt. %, 1:1): 98%
% O2 Removed At 60 Seconds ([2]; stock mu-amine 30.0 / hydroquinone 30.0 wt. %, 1:1): 98%
% O2 Removed At 60 Seconds ([2]; stock mu-amine 40.0 / hydroquinone 40.0 wt. %, 1:1): 94%
% O2 Removed At 60 Seconds [2, 12]: 94%
% O2 Removed At 60 Seconds [2, 13]: 96%
% O2 Removed ([2]; Table 12, methoxypropylamine 1.0 / hydroquinone 1.0 wt. %, final pH 8.5): 10%
% O2 Removed ([2]; Table 12, methoxypropylamine 1.0 / hydroquinone 6.0 wt. %, final pH 8.4): 78%
% O2 Removed ([2]; Table 12, methoxypropylamine 3.0 / hydroquinone 3.0 wt. %, final pH 8.9): 74%
% O2 Removed ([2]; Table 12, methoxypropylamine 6.0 / hydroquinone 1.0 wt. %, final pH 9.0): 17%
% O2 Removed ([2]; Table 12, methoxypropylamine 6.0 / hydroquinone 6.0 wt. %, final pH 9.0): 93%
lowest practical MOPA concentration in the mixture ([5]; 10% hydroquinone aqueous solution): 2%
MOPA required to dissolve hydroquinone ([3]; 10.0 g hydroquinone, neat MOPA): 12.5 grams
mu-amine required to effect dissolution [3]: 1.7 grams
thermal stability [6]: most thermally stable of the amines tested

Molecule: NCCO [Monoethanolamine]
% O2 Removed [2, 10]: 75%

Molecule: CC(O)CN (stereo not drawn) [Monoisopropanolamine]
% O2 Removed [4, 15]: 98%

compatibility with hydroquinone in solution [1]: precipitated out of solution
Molecule: C1COCCN1 [Morpholine]

Molecule: NCCNCCNCCN [Triethylenetetramine]
% O2 Removed [2, 10]: 89%

Molecule: NN [hydrazine]
% O2 Removed ([7]; Table 3, control run 1, 1.6 ppm actives, pH 8.8, steam load 11, initial O2 13.0 ppb): 69%
% O2 Removed ([7]; Table 3, control run 2, 1.1 ppm actives, pH 9.4, steam load 15, initial O2 4.0 ppb): 50%
% O2 Removed ([7]; Table 3, control run 3, 1.2 ppm actives, pH 8.6, steam load 15, initial O2 6.0 ppb): 60%
% O2 Removed ([7]; Table 3, control run 4, 1.0 ppm actives, pH 8.8, steam load 15, initial O2 5.8 ppb): 55%
% O2 Removed ([7]; Table 3, control run 5, 0.8 ppm actives, pH 9.4, steam load 11, initial O2 3.5 ppb): 31%
% O2 Removed ([7]; Table 3, control run 6, 1.6 ppm actives, pH 9.6, steam load 14, initial O2 4.0 ppb): 30%
% O2 Removed, 5 Minutes [2, 16]: 2%
% O2 Removed, 1 Minute [2, 16]: 1%
pH of maximum oxygen scavenging efficacy ([8]; Cohn and Powell 1954): 10.0-10.5 pH
decomposition temperature ([8]; forms ammonia): Above 400 ° F.
rate of reaction with oxygen ([8]; low temperatures, such as room temperature): very slow at low temperatures

Molecule: Oc1ccc(O)cc1 [hydroquinone]
% O2 Removed [4, 17]: 97%
% O2 Removed, 1 Minute [2, 16]: 29%
% O2 Removed ([2]; Table 12, mu-amine 0 / hydroquinone 1.0 wt. %, final pH 8.1): 9%
% O2 Removed ([2]; Table 12, mu-amine 0 / hydroquinone 3.0 wt. %, final pH 8.0): 17%
% O2 Removed ([2]; Table 12, mu-amine 0 / hydroquinone 6.0 wt. %, final pH 7.9): 27%
active hydroquinone concentration of stable aqueous solution ([5]; 1 to 1 with methoxypropylamine (40%), sealed storage for 12 days): up to 40%
dissolution time, solution #1 [3, 18]: 23 min
dissolution time, solution #2 [3, 18]: 19 min
dissolution time, solution #3 [3, 18]: 21 min
aqueous solubility (accepted literature value) ([9]; 25 °C): ~7%
solubility in water ([9]; hydroquinone alone): about 7%

Molecule: Nc1ccccc1N [o-phenylenediamine, reference compound]
% O2 Removed [4, 17]: 10%

Molecule: Nc1ccc(N)cc1 [p-phenylenediamine, reference compound]
% O2 Removed [4, 17]: 35%

Molecule: Oc1cccc(O)c1 [resorcinol, reference compound]
% O2 Removed [4, 17]: 0%

compatibility with hydroquinone in solution [1]: compatible with hydroquinone in solution
Molecule: CCC(C)N (stereo not drawn) [sec-Butylamine]
% O2 Removed [2, 10]: 74%

compatibility with hydroquinone in solution [1]: insoluble mass
Molecule: CC(C)(C)N [tert-Butylamine]

Molecule: Dimethyl(iso)propanolamine
% O2 Removed [4, 14]: 98%
% O2 Removed [2, 10]: 73%
